Legend:
Assay in all cases: radiometric filter-binding kinase assay
[1] = test system: AKT2 (human), P31751 [S474D]
AURKB (human) = AURKB (human) (UniProt Q96GD4)
CAMKK2 (human) = CAMKK2 (human) (UniProt Q96RR4)
CDK2 CCNA2 (human) = CDK2 CCNA2 (human) (UniProt P20248+P24941)
CHEK1 (human) = CHEK1 (human) (UniProt O14757)
CSNK2A1 (human) = CSNK2A1 (human) (UniProt P68400)
CaMK1 (human) = CaMK1 (human) (UniProt Q14012)
DYRK1A (human) = DYRK1A (human) (UniProt Q13627)
EPHB3 (human) = EPHB3 (human) (UniProt P54753); conditions: compound 10.0 µM
IGF1R (human) = IGF1R (human) (UniProt P08069)
IGF1R (human), sequence (P08069 whole entry, looked up): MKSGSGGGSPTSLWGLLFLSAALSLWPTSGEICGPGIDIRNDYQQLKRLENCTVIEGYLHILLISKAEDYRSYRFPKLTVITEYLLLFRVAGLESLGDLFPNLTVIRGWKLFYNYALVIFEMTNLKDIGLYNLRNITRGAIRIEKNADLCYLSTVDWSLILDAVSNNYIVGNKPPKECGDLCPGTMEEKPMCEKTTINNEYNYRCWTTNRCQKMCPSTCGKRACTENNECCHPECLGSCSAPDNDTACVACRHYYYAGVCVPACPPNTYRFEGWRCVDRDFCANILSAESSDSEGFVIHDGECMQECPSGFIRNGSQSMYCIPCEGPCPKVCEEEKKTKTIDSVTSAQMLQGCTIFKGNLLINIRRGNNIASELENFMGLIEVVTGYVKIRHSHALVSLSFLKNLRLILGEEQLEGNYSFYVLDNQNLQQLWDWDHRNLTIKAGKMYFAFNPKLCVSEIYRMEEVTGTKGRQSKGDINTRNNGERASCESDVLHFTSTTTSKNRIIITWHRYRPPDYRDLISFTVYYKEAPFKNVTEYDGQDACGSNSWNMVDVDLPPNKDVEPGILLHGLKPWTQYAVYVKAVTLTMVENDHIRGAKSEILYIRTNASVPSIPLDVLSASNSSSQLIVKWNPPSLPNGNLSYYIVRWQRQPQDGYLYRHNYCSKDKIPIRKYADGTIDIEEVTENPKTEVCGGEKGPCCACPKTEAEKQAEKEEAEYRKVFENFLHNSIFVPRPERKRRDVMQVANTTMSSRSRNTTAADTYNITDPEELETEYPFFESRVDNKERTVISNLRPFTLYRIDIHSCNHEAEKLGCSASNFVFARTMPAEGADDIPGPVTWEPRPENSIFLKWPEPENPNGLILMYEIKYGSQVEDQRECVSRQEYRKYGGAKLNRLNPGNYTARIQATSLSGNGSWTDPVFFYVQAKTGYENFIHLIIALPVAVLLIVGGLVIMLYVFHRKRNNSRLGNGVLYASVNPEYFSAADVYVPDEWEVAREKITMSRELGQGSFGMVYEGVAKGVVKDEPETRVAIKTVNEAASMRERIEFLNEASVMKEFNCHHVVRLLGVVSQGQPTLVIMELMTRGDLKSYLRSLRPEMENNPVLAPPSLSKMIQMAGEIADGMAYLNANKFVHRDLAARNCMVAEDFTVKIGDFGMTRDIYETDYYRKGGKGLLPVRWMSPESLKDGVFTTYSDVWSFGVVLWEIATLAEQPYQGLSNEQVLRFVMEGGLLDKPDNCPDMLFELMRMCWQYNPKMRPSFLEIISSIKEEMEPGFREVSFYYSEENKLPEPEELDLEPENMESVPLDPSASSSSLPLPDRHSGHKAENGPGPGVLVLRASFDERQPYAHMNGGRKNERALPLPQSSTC

INSR (human) = INSR (human) (UniProt P06213)
INSR (human), sequence (P06213 whole entry, looked up): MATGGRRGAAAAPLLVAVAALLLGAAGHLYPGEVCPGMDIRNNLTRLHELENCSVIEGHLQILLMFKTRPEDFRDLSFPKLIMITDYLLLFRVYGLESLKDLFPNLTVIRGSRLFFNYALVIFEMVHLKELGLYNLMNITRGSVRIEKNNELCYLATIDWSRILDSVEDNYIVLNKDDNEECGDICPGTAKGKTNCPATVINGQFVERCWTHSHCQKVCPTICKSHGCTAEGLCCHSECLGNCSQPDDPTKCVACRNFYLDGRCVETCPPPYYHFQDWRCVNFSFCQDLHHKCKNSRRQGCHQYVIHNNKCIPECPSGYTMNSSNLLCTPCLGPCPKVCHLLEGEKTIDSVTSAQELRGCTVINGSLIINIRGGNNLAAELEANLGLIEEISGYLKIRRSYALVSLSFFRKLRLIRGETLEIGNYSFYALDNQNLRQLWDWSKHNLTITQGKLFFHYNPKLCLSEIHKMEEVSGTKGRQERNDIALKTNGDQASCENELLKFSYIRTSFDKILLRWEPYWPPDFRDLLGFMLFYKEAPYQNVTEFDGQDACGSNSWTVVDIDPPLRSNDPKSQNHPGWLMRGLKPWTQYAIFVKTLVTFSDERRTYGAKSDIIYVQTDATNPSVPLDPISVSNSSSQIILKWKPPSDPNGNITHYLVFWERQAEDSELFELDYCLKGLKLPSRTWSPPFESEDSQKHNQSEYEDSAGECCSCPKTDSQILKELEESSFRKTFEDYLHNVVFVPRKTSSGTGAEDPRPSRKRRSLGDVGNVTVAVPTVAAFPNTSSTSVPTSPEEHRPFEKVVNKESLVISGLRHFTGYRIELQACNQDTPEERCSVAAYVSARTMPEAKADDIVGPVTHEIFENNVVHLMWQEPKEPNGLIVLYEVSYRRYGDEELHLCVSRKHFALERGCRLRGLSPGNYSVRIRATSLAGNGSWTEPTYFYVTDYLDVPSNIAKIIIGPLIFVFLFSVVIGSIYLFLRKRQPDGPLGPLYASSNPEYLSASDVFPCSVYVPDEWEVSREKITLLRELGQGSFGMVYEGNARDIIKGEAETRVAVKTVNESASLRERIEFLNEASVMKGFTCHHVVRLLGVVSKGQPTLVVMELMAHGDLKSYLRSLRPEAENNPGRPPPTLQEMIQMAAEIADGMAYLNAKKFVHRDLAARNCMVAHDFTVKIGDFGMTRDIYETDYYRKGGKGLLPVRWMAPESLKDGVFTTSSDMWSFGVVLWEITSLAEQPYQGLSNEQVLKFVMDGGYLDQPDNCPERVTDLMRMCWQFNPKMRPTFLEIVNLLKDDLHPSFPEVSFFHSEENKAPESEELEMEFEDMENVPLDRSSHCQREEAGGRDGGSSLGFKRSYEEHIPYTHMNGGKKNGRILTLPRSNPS

INSRR (human) = INSRR (human) (UniProt P14616)
JAK2 JH1 JH2 (human) = JAK2 JH1 JH2 (human) (UniProt O60674); conditions: compound 10.0 µM
LCK (mouse) = conditions: accession and sequence are those of the human protein
MAP2K1 (human) = MAP2K1 (human) (UniProt Q02750); conditions: compound 1.0 µM
MAP3K11 (human) = MAP3K11 (human) (UniProt Q16584)
MAP3K9 (human) = MAP3K9 (human) (UniProt P80192)
MAPK10 (human) = MAPK10 (human) (UniProt P53779)
MAPK10 (human), sequence (P53779 whole entry, looked up): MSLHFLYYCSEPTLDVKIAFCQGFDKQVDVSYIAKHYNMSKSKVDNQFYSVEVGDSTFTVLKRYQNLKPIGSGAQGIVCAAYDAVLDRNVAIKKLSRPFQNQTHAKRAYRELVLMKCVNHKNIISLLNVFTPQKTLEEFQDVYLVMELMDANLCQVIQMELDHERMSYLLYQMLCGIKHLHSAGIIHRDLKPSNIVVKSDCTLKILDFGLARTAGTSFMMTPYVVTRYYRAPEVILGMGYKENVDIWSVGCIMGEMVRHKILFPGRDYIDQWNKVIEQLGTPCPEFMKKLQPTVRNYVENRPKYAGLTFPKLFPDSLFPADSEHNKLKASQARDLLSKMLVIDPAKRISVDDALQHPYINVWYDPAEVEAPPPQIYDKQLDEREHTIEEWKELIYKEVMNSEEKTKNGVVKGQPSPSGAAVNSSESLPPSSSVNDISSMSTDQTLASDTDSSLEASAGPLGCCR

MAPK13 (human) = MAPK13 (human) (UniProt O15264)
MARK3 (human) = MARK3 (human) (UniProt P27448)
MARK4 (human) = MARK4 (human) (UniProt Q96L34)
MARK4 (human), sequence (Q96L34 whole entry, looked up): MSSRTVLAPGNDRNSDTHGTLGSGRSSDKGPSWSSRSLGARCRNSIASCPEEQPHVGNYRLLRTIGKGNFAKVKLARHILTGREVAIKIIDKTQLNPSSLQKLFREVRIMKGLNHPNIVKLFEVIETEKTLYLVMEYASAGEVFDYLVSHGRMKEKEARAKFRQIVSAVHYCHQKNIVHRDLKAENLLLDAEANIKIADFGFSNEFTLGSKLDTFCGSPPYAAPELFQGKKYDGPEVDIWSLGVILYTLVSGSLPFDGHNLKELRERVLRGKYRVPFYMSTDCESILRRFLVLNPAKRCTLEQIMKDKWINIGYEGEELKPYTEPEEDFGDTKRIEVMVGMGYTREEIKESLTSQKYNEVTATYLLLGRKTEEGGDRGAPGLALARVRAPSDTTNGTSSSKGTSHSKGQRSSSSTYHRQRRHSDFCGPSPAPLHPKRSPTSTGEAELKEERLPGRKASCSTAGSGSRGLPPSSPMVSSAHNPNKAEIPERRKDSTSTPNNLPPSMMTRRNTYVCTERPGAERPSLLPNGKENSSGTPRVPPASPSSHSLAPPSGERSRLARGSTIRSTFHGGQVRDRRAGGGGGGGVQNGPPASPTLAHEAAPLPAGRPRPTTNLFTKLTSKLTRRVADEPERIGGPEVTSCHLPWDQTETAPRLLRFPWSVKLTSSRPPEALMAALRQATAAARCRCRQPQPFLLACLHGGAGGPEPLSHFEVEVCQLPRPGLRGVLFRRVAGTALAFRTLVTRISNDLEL

MINK1 (human) = MINK1 (human) (UniProt Q8N4C8); conditions: compound 10.0 µM
MKNK1 (human) = MKNK1 (human) (UniProt Q9BUB5)
MKNK1 (human), sequence (Q9BUB5 whole entry, looked up): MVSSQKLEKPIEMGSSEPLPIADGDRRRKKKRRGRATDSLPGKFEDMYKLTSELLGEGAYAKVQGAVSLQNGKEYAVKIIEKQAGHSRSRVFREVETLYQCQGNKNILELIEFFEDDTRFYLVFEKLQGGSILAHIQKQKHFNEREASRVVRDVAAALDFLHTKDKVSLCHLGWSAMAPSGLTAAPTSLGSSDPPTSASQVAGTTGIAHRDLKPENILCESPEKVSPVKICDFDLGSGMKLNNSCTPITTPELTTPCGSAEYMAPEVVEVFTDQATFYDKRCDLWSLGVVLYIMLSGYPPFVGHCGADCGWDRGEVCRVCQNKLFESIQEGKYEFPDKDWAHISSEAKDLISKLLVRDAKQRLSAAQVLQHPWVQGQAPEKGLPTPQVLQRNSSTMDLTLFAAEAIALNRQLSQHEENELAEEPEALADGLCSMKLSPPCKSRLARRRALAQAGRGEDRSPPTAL

MST4 (human) = MST4 (human) (UniProt Q9P289)
NTRK1 (human) = NTRK1 (human) (UniProt P04629); conditions: compound 1.0 µM
NUAK1 (human) = NUAK1 (human) (UniProt O60285)
PAK4 (human) = PAK4 (human) (UniProt O96013)
PHKG1 (human) = PHKG1 (human) (UniProt Q16816)
PIM2 (human) = PIM2 (human) (UniProt Q9P1W9)
PRKAA1 or PRKAA2 (rat) = conditions: accession and sequence are those of the human protein
PRKACA (human) = PRKACA (human) (UniProt P17612)
PRKCZ (human) = PRKCZ (human) (UniProt Q05513)
RIPK2 (human) = RIPK2 (human) (UniProt O43353)
SRC (human) = SRC (human) (UniProt P12931)
SYK (human) = SYK (human) (UniProt P43405)
YES1 (human) = YES1 (human) (UniProt P07947); conditions: compound 1.0 µM

CHEK1 (human), sequence (O14757 whole entry, looked up): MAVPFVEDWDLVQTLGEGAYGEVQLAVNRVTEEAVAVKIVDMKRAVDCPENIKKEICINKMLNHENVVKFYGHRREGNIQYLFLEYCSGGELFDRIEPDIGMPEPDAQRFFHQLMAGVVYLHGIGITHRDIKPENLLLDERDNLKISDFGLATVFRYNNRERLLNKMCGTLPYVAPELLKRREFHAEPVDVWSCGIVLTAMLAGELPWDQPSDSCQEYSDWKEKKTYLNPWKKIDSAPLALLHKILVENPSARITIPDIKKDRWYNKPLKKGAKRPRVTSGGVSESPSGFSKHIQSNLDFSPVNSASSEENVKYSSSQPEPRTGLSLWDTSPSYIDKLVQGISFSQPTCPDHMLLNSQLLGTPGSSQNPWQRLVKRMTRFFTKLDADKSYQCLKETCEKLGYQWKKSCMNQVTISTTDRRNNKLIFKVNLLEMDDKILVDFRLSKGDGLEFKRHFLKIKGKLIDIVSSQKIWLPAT

residual activity ([1]; compound 1.0 µM): 109%
residual activity ([1]; compound 10.0 µM): 108%
residual activity (AURKB (human); compound 1.0 µM): 95%
residual activity (AURKB (human); compound 10.0 µM): 96%
residual activity (CAMKK2 (human); compound 1.0 µM): 92%
residual activity (CAMKK2 (human); compound 10.0 µM): 73%
residual activity (CDK2 CCNA2 (human); compound 1.0 µM): 106%
residual activity (CDK2 CCNA2 (human); compound 10.0 µM): 106%
residual activity (CHEK1 (human); compound 1.0 µM): 85%
residual activity (CHEK1 (human); compound 10.0 µM): 86%
residual activity (CSNK2A1 (human); compound 1.0 µM): 87%
residual activity (CSNK2A1 (human); compound 10.0 µM): 71%
residual activity (CaMK1 (human); compound 1.0 µM): 98%
residual activity (CaMK1 (human); compound 10.0 µM): 93%
residual activity (DYRK1A (human); compound 1.0 µM): 102%
residual activity (DYRK1A (human); compound 10.0 µM): 85%
residual activity (EPHB3 (human)): 83%
residual activity (IGF1R (human); compound 1.0 µM): 93%
residual activity (IGF1R (human); compound 10.0 µM): 89%
residual activity (INSR (human); compound 1.0 µM): 102%
residual activity (INSR (human); compound 10.0 µM): 96%
residual activity (INSRR (human); compound 1.0 µM): 66%
residual activity (INSRR (human); compound 10.0 µM): 68%
residual activity (JAK2 JH1 JH2 (human)): 83%
residual activity (LCK (mouse); compound 1.0 µM): 110%
residual activity (LCK (mouse); compound 10.0 µM): 102%
residual activity (MAP2K1 (human)): 85%
residual activity (MAP3K11 (human); compound 1.0 µM): 80%
residual activity (MAP3K11 (human); compound 10.0 µM): 47%
residual activity (MAP3K9 (human); compound 1.0 µM): 69%
residual activity (MAP3K9 (human); compound 10.0 µM): 47%
residual activity (MAPK10 (human); compound 1.0 µM): 99%
residual activity (MAPK10 (human); compound 10.0 µM): 92%
residual activity (MAPK13 (human); compound 1.0 µM): 103%
residual activity (MAPK13 (human); compound 10.0 µM): 97%
residual activity (MARK3 (human); compound 1.0 µM): 91%
residual activity (MARK3 (human); compound 10.0 µM): 87%
residual activity (MARK4 (human); compound 1.0 µM): 96%
residual activity (MARK4 (human); compound 10.0 µM): 85%
residual activity (MINK1 (human)): 104%
residual activity (MKNK1 (human); compound 1.0 µM): 106%
residual activity (MKNK1 (human); compound 10.0 µM): 95%
residual activity (MST4 (human); compound 1.0 µM): 94%
residual activity (MST4 (human); compound 10.0 µM): 90%
residual activity (NTRK1 (human)): 88%
residual activity (NUAK1 (human); compound 1.0 µM): 95%
residual activity (NUAK1 (human); compound 10.0 µM): 73%
residual activity (PAK4 (human); compound 1.0 µM): 85%
residual activity (PAK4 (human); compound 10.0 µM): 67%
residual activity (PHKG1 (human); compound 1.0 µM): 85%
residual activity (PHKG1 (human); compound 10.0 µM): 83%
residual activity (PIM2 (human); compound 1.0 µM): 110%
residual activity (PIM2 (human); compound 10.0 µM): 88%
residual activity (PRKAA1 or PRKAA2 (rat); compound 1.0 µM): 92%
residual activity (PRKAA1 or PRKAA2 (rat); compound 10.0 µM): 83%
residual activity (PRKACA (human); compound 1.0 µM): 99%
residual activity (PRKACA (human); compound 10.0 µM): 91%
residual activity (PRKCZ (human); compound 1.0 µM): 93%
residual activity (PRKCZ (human); compound 10.0 µM): 96%
residual activity (RIPK2 (human); compound 1.0 µM): 97%
residual activity (RIPK2 (human); compound 10.0 µM): 88%
residual activity (SRC (human); compound 1.0 µM): 97%
residual activity (SRC (human); compound 10.0 µM): 78%
residual activity (SYK (human); compound 1.0 µM): 158%
residual activity (SYK (human); compound 10.0 µM): 117%
residual activity (YES1 (human)): 117%
SMILES: Cc1nc(-c2ccc(OCC(C)C)c(C#N)c2)sc1C(=O)O
